Like-named read-outs stand apart in the source and are kept apart here.
Legend:
Type in all cases: cell-based
hERG potassium channel = hERG potassium channel (Homo sapiens, UniProt Q12809); test: hERG screening assay (PatchXpress, CHO cells); design: hERG: unit not given here
Method: Compounds were also tested for their effect to block the hERG K^+ channel.
Compounds were screened to test their activity in blocking the hERG potassium channel at AVIVA Biosciences (San Deigo, Calif., USA). The hERG channel is heterologously expressed in a CHO (Chinese Hamster Ovary) cell line. Cells were maintained with standard tissue culture procedures and stable channel expression was maintained with 500 μg/mL G418 in the culture medium. Cells were harvested for testing on the PatchXpress 7000A automated patch clamp with Accumax (Innovative Cell Technologies, San Diego, Calif.) to isolate single cells.
The following solutions were used for electrophysiological recordings. The external solution contained: 2 mM CaCl2; 2 mM MgCl2; 4 mM KCl; 150 mM NaCl; 10 mM Glucose; 10 mM HEPES (pH 7.4 with 1M NaOH; osmolarity, ˜310 mOsm).
hERG channels were activated when the voltage was first stepped to −50 mV for 300 ms from the −80 mV holding potential and then stepped to +20 mV for 5 seconds. At +20 mV the channels open and then largely inactivate, so the currents are relatively small. Upon returning to −50 mV from +20 mV, hERG currents transiently become much larger as inactivation is rapidly removed and then the channel closes. The first step to −50 mV for 300 ms was used as a baseline for measuring the peak amplitude during the step to −50 mV after channel activation. The peak tail current at −50 mV was measured both under control conditions and after addition of compound, each cell serving as its own control.
All compounds were prepared as 10 mM DMSO stocks in glass vials. Stock solutions were mixed by vigorous vortexing and sonication for about 2 minutes at room temperature. For testing, compounds were diluted in glass vials using an intermediate dilution step in pure DMSO and then further diluted to working concentrations in external solution. Dilutions were prepared no longer than 20 minutes before use.
For the electrophysiological recordings, after achieving the whole-cell configuration, cells were monitored for 90 seconds to assess stability and washed with external solution for 66 seconds. The voltage protocol described above was then applied to the cells every 12 seconds and throughout the whole procedure. Only cells with stable recording parameters and meeting specified health criteria were allowed to enter the compound addition procedure.
External solution containing 0.1% DMSO (vehicle) was applied to the cells first to establish the control peak current amplitude. After allowing the current to stabilize for 3 to 5 minutes, 1 μM and then 10 μM test compounds were applied. Each compound concentration was added 4 times and cells were kept in test solution until the effect of the compound reached steady state or for a maximum of 12 minutes. […] Washout in the external solution compartment was performed until the recovery of the current reached steady state.

[1] = biological target: T1, hNav 1.1 sodium channel isoform (Homo sapiens, UniProt P35498); test: hNav1.1 whole-cell voltage-clamp assay; details: for inhibition at 1 µM: use-dependent block, 10 Hz, read-out: NAV1.1* UDB-10HZ
T1 construct: expressed in transfected cells; host or cells: HEK293, transient transfection (Qiagen Superfect)

[2] = biological target: T2, hNav 1.2 sodium channel isoform (Homo sapiens, UniProt Q99250); test: hNav1.2 whole-cell voltage-clamp assay; details: use-dependent block, 10 Hz, read-out: NAV1.2* UDB-10HZ
T2 construct: expressed in transfected cells
Method: Wild-type (WT) cDNA stably transfected in Chinese hamster ovary (CHO) cells is used to record INa. Unless otherwise noted, all reagents are purchased from Sigma-Aldrich (St Louis, Mo., U.S.A.).
Whole-cell voltage-clamp recordings are used to measure the biophysical properties of WT. […] Cells are allowed to stabilize for 10 min after establishment of the whole-cell configuration before current is measured. Series resistance is compensated 90% to assure that the command potential is reached within microseconds with a voltage error<2 mV. Leak currents are subtracted by using an online P/4 procedure and all currents are low-pass Bessel filtered at 5 kHz and digitized at 50 kHz.
For clarity, representative ramp currents are low pass filtered off-line at 50 Hz. Specific voltage-clamp protocols assessing channel activation, fast inactivation and availability during repetitive stimulation are used. Results are presented as mean±SEM.
Tonic block of peak current is measured using a step to −10 mV (20 ms) from a holding potential of −120 mV (0.2 Hz). Use-dependent block of peak current is measured during pulse number 300 of a pulse train (−10 mV, 5 ms, 300 pulses, 10 Hz or 25 Hz) from a holding potential of −120 mV. Two sequential pulse train stimulations are averaged to obtain mean current traces for each recording condition, which are then used for offline subtraction and analysis.
For use-dependent studies, cells are stimulated with depolarizing pulse trains (−10 mV, 5 ms, 300 pulses, 10 and 25 Hz) from a holding potential of −120 mV. Currents are then normalized to the peak current recorded in response to the first pulse in each frequency train. For tonic block studies, peak current is evaluated in response to a 20 ms depolarization to −10 mV (0.2 Hz). […] Results are presented as mean±SEM.
A stock solution of 10 mM compound of Formula I is prepared in 0.1 M HCl or DMSO. […] The final DMSO concentration was kept at 0.1% in all solutions. Direct application of the perfusion solution to the clamped cell is achieved using the Perfusion Pencil system (Automate, Berkeley, Calif.). Direct cell perfusion is driven by gravity at a flow rate of 350 μL/min using a 250 micron tip. This system sequesters the clamped cell within a perfusion stream and enables complete solution exchange within 1 second. The clamped cell is perfused continuously starting immediately after establishing the whole-cell configuration. Control currents are measured during control solution perfusion.
Solutions are perfused for three minutes prior to current recordings to allow equilibrium (tonic) drug block. Tonic block of peak currents is measured from this steady-state condition. Three sequential current traces are averaged to obtain a mean current for each recording. The mean current traces are utilized for offline analysis. Use-dependent block of peak current is measured during pulse number 300 of the pulse train, (−10 mV, 5 ms, 300 pulses, 10 Hz) from a holding potential of −120 mV.

T2 sequence (Q99250 whole entry, canonical isoform): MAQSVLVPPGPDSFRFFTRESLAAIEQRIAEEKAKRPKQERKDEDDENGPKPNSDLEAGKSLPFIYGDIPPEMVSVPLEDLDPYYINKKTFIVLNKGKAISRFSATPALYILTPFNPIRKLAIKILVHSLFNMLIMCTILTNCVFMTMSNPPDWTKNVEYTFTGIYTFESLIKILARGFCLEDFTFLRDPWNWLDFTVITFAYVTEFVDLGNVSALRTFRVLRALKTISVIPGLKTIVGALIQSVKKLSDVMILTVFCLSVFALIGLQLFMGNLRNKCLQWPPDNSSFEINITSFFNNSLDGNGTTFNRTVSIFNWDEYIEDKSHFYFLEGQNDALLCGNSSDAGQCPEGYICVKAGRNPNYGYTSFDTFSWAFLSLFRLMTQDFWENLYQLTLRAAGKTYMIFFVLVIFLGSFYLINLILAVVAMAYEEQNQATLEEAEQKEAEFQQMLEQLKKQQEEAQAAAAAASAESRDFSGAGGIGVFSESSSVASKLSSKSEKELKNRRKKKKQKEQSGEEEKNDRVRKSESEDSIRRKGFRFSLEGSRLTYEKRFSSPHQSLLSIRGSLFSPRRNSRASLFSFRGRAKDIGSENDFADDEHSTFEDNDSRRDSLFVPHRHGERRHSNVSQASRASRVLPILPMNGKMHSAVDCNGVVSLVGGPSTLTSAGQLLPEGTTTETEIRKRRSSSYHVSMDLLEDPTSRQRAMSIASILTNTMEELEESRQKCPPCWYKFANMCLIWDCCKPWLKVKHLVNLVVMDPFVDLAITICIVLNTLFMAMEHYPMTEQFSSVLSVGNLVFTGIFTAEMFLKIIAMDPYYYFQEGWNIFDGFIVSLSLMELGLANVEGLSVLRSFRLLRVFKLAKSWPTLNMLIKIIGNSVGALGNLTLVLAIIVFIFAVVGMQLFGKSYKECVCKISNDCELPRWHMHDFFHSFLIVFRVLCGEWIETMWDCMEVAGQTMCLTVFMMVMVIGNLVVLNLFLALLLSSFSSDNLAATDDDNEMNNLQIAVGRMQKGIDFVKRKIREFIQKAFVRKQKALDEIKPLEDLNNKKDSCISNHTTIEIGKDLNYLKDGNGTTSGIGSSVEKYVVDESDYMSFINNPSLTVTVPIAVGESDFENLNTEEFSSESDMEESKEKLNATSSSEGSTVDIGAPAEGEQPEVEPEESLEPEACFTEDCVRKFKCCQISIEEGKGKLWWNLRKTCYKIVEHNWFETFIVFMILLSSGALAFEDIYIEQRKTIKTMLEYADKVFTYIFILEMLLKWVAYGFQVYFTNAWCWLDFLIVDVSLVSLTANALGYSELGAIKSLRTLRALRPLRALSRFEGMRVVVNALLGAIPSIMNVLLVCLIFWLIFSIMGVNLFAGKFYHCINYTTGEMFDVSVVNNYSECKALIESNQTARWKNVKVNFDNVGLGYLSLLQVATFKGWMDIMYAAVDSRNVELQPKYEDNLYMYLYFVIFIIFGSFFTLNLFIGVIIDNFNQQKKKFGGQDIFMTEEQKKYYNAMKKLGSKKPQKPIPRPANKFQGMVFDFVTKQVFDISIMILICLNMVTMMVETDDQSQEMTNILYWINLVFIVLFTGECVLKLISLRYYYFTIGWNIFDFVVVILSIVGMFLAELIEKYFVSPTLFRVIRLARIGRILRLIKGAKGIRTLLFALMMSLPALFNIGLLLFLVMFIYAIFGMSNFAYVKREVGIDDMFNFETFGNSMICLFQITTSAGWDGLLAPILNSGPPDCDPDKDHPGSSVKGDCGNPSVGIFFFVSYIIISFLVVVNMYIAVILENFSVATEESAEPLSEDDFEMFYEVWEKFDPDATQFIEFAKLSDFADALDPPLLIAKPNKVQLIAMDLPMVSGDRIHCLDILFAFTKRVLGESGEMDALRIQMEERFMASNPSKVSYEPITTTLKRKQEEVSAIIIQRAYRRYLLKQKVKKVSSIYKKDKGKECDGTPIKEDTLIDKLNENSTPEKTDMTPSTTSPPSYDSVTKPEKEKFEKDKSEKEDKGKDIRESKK
hERG potassium channel, sequence (Q12809 whole entry): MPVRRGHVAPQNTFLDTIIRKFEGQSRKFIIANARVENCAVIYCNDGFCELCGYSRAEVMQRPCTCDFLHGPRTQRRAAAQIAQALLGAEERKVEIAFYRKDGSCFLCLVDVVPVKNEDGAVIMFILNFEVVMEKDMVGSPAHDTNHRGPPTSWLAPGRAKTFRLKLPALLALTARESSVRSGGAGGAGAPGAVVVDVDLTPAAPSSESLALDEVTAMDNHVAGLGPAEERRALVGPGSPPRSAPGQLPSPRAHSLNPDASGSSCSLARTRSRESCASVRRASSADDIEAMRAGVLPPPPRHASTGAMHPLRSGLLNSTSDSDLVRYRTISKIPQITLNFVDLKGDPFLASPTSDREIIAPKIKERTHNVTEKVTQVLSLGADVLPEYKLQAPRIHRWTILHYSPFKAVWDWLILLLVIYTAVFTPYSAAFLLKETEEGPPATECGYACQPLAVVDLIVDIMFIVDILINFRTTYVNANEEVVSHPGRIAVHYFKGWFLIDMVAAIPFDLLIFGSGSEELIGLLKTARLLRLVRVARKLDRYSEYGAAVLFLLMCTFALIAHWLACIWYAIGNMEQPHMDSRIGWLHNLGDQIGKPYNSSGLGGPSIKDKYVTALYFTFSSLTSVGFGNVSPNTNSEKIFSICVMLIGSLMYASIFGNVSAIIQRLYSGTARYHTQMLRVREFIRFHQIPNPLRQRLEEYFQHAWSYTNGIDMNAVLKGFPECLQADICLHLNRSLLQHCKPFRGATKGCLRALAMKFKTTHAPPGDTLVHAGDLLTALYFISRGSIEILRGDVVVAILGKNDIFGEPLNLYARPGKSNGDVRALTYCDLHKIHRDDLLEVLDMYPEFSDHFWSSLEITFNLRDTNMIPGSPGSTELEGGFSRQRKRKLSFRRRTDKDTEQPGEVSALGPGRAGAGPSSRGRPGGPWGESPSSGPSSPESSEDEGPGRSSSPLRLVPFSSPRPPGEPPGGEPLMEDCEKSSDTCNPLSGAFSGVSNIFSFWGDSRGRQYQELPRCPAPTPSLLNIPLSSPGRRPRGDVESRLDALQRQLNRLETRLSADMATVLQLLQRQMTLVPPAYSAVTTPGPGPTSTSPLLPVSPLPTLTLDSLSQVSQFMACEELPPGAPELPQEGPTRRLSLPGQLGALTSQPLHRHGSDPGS

| SMILES | inhibition at 1 µM [1] | inhibition at 1 µM [2] | hERG (hERG potassium channel) | IC50 ([1]; frequency of 10 Hz, read-out: IC50 block of hNav 1.1 peak INa) | IC50 ([1]; frequency of 25 Hz, read-out: IC50 block of hNav 1.1) | inhibited (or reduced) the activity of the hERG potassium channel (hERG potassium channel; at 1 μM) |
| --- | --- | --- | --- | --- | --- | --- |
| O=C1CN(Cc2ccccc2)C(=O)c2cc(-c3ccc(C(F)(F)F)cc3)ccc2N1 [Compound X-8, 4-benzyl-7-(4-(trifluoromethyl)phenyl)-3,4-dihydro-1H-benzo[e][1,4]diazepine-2,5-dione] | -12% | -14% | <10 | – | – | – |
| O=C1c2cc(-c3ccc(C(F)(F)F)cc3)ccc2OC[C@H]2CN(CC(F)F)CCN12 [II-22, (R)-2-(2,2-difluoroethyl)-8-(4-(trifluoromethyl)phenyl)-3,4,12,12a-tetrahydro-1H-benzo[f]pyrazino[2,1-c][1,4]oxazepin-6(2H)-one] | 3% | 15% | 16 | – | – | – |
| O=C1c2cc(-c3ccc(OC(F)(F)F)cc3)ccc2OCCN1Cc1ncccn1 [II-73, 4-(pyrimidin-2-ylmethyl)-7-(4-(trifluoromethoxy)phenyl)-3,4-dihydrobenzo[f][1,4]oxazepin-5(2H)-one] | – | 19% | – | > 100 µM | 3.4 µM | – |
| O=C1c2cc(-c3ccc(C(F)(F)F)cc3)ccc2OC[C@H]2CN(CC(F)(F)F)CCN12 [II-83, (R)-2-(2,2,2-trifluoroethyl)-8-(4-(trifluoromethyl)phenyl)-3,4,12,12a-tetrahydro-1H-benzo[f]pyrazino[2,1-c][1,4]oxazepin-6(2H)-one] | -2% | 10% | 21 | – | – | – |
| O=C1c2cc(-c3ccc(Cl)cc3)ccc2OCCN1Cc1ncccn1 [II-88, 7-(4-chlorophenyl)-4-(pyrimidin-2-ylmethyl)-3,4-dihydrobenzo[f][1,4]oxazepin-5(2H)-one] | -10% | -1% | 26 | – | – | – |
| CC(C)(C)c1ccc(-c2ccc3c(c2)C(=O)N(Cc2ncccn2)CCO3)cc1 [II-98, 7-(4-tert-butylphenyl)-4-(pyrimidin-2-ylmethyl)-3,4-dihydrobenzo[f][1,4]oxazepin-5(2H)-one] | -1% | -8% | <10 | – | – | – |
| O=C1c2cc(-c3ccc(C(F)(F)F)cc3F)ccc2OCCN1Cc1ncccn1 [II-105, 7-(2-fluoro-4-(trifluoromethyl)phenyl)-4-(pyrimidin-2-ylmethyl)-3,4-dihydrobenzo[f][1,4]oxazepin-5(2H)-one] | -17% | 1% | <10 | – | – | < 10% |
| O=C1c2cc(C#Cc3ccc(OC(F)(F)F)cc3)ccc2OCCN1Cc1ncccn1 [VIII-4, 4-(pyrimidin-2-ylmethyl)-7-((4-(trifluoromethoxy)phenyl)ethynyl)-3,4-dihydrobenzo[f][1,4]oxazepin-5(2H)-one] | 5% | 18% | 30 | – | – | – |

Further lines, with some results ahead:

| inhibition at 1 µM [1] | inhibition at 1 µM [2] | SMILES | hERG (hERG potassium channel) | IC50 ([1]; frequency of 10 Hz, read-out: IC50 block of hNav 1.1 peak INa) | IC50 ([1]; frequency of 25 Hz, read-out: IC50 block of hNav 1.1) | inhibited (or reduced) the activity of the hERG potassium channel (hERG potassium channel; at 1 μM) |
| --- | --- | --- | --- | --- | --- | --- |
| -4% | -2% | O=C1c2cc(-c3ccc(C(F)(F)F)cc3Cl)ccc2OCCN1Cc1ncccn1 [II-110, 7-(2-chloro-4-(trifluoromethyl)phenyl)-4-(pyrimidin-2-ylmethyl)-3,4-dihydrobenzo[f][1,4]oxazepin-5(2H)-one] | 26 | – | – | – |
| -11% | -18% | O=C1c2cc(-c3ccc(Cl)cc3F)ccc2OCCN1Cc1ncccn1 [II-117, 7-(4-chloro-2-fluorophenyl)-4-(pyrimidin-2-ylmethyl)-3,4-dihydrobenzo[f][1,4]oxazepin-5(2H)-one] | <10 | – | – | – |
| 8% | 7% | O=C1c2cc(-c3ccc(C(F)(F)F)cc3)ccc2OCCN1Cc1cn2ccccc2n1 [II-129, 4-(imidazo[1,2-a]pyridin-2-ylmethyl)-7-(4-(trifluoromethyl)phenyl)-3,4-dihydrobenzo[f][1,4]oxazepin-5(2H)-one] | 17 | – | – | – |
| -1% | -3% | O=C(c1ncccn1)N1CCOc2ccc(-c3ccc(OC(F)(F)F)cc3)cc2C1 [III-1, pyrimidin-2-yl(7-(4-(trifluoromethoxy)phenyl)-2,3-dihydrobenzo[f][1,4]oxazepin-4(5H)-yl)methanone] | <10 | – | – | – |
| 6% | 20% | O=C1c2cc(C#Cc3ccc(C(F)(F)F)cc3)ccc2OCCN1Cc1ncccn1 [VIII-6, 4-(pyrimidin-2-ylmethyl)-7-((4-(trifluoromethyl)phenyl)ethynyl)-3,4-dihydrobenzo[f][1,4]oxazepin-5(2H)-one] | <10 | – | – | – |

Source: patent publication US9676760B2, “Fused heterocyclic compounds as ion channel modulators” (Gilead Sciences, Inc., priority 2011, dated 2017)
